Experimental data published in ChEMBL document CHEMBL4725331, “An investigative study of antitumor properties of a novel thiazolo[4,5-d]pyrimidine small molecule revealing superior antitumor activity with CDK1 selectivity and potent pro-apoptotic properties” (Bioorg Med Chem, 2020).

Legend:
HCT-116 = test: Cytotoxicity against human HCT-116 cells assessed as reduction in cell viability after 48 hrs by MTT assay; type: functional, cell-based; conditions: HCT-116, 48 h
WI-38 = test: Cytotoxicity against human WI-38 cells assessed as reduction in cell viability after 48 hrs by MTT assay; type: cell-based; conditions: WI-38, 48 h
HOP-92 = test: Antiproliferative activity against human HOP-92 cells assessed as inhibition of cell growth measured after 48 hrs by SRB assay; type: functional
IGROV-1 = test: Antiproliferative activity against human IGROV-1 cells assessed as inhibition of cell growth measured after 48 hrs by SRB assay; type: functional

Structure (SMILES)	IC50 (HCT-116) [µM]	IC50 (WI-38) [µM]	GI50 (HOP-92) [µM]	GI50 (IGROV-1) [µM]
CC[C@H](CO)Nc1nc(NCc2ccccc2)c2ncn(C(C)C)c2n1 [SELICICLIB]	15.5	24.1		
COc1ccc(-n2c(=S)sc3c(=O)[nH]c(C)nc32)c(OC)c1			< 0.01	0.18
